Measured values reported in article PMC10997755, “Discovery of a small-molecule inhibitor that traps Polθ on DNA and synergizes with PARP inhibitors” (Nature Communications, 2024).
Where “and” joins values, the source holds several entries; their conditions need not be identical. Identical values can stand only once. Entries after “also recorded” stand apart in the source; their conditions may differ.

Tests used:
Assay type in all cases: biochemical
Polθ-pol = molecular target: T1, Polθ-pol (Homo sapiens, UniProt O75417); experiment: MMEJ in vitro assay
T1 construct: purified recombinant human Polθ-pol (comprising amino acid residues 1792–2590); made in house
T1 sequence (O75417 1792-2590): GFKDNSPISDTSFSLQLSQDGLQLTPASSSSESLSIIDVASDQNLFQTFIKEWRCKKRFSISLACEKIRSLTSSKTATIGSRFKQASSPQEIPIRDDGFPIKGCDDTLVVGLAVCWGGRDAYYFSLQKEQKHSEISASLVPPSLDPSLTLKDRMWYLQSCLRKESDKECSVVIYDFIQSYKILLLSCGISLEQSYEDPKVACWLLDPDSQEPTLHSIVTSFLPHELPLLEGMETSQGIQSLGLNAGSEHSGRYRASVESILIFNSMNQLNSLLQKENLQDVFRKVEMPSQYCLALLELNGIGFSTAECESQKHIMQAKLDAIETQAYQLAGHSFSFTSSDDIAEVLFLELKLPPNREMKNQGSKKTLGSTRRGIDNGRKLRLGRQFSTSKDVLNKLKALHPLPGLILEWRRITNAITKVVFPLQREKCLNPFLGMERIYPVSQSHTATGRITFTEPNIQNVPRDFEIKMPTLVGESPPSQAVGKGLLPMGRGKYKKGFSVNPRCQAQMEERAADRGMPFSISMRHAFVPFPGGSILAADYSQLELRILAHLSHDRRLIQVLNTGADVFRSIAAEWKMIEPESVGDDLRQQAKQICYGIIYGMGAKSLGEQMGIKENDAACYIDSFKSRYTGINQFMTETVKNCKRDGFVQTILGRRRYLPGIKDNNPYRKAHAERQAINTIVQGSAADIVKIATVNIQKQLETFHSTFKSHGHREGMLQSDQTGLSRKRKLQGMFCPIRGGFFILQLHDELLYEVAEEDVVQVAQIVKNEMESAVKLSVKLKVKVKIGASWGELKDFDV
Protocol: For the MMEJ in vitro assay in the presence of RTx-161, 10 nM Polθ-pol was first mixed with DMSO (3% final concentration) or RTx-161 at indicated final concentrations 4–500 nM in reaction buffer (25 mM Tris-HCl pH 7.5, 10 mM MgCl2, 10% glycerol, 0.1 mg/mL BSA, 0,01% IGEPAL CA-630, 1 mM DTT) followed by incubation for 5 min at room temperature. MMEJ reactions were started by the addition of 50 μM dNTP and 25 nM 5’-^32P radiolabeled pssDNA (RP343/^32P-RP344), incubated for 15 min at 37 °C, stopped by the addition of denaturing formamide loading buffer with 50 mM EDTA, resolved in denaturing 20% PAGE and analyzed using Typhoon PhosphorImager (GE Amersham). Quantification was performed using ImageQuant TL software. For the MMEJ in vitro assay in the presence of MC160385, 0.2–10 μM MC160385, 10 nM Polθ-pol, 60 nM 5’-^32P radiolabeled pssDNA and 100 μM dNTPs were used. The reaction was performed as above and stopped by the Proteinase K treatment in 50 mM EDTA and 0.5% SDS. The products were resolved in native 12% PAGE at room temp and analyzed as above.

KpnI = molecular target: T2, KpnI (Klebsiella pneumoniae, UniProt P25237); experiment: KpnI cleavage control in the absence of Polθ-pol; conditions: for cleavage %: KpnI; for inhibition of KpnI activity: absence of Polθ-pol; for % cleavage: compound 10 µM
T2 construct: purchased New England Biolabs
T2 sequence (P25237 1-218): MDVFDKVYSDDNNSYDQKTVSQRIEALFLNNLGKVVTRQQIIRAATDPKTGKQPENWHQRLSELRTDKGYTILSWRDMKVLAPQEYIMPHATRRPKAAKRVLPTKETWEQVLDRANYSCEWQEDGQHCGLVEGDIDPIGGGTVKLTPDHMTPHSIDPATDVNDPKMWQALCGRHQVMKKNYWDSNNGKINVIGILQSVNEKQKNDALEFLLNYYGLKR
Protocol: (§1) EcoRI and KpnI endonucleases assay: 25 nM 5’-^32P radiolabeled primer-template DNA Sc15-EcoRI (5’-^32P LM3-EcoRI/LM4-EcoRI) or Sc19-KpnI (5’-^32P LM11-Kpn/LM12-Kpn) in reaction buffer (25 mM Tris-HCl pH 7.5, 10 mM MgCl2, 10% glycerol, 0.1 mg/mL BSA, 0,01% igepal, 1 mM DTT) were incubated in the presence or in the absence of 50 nM Polθ-pol, 100 μM ddCTP, and 10 μM inhibitors, as indicated, for 5 min at room temperature. Next, 0.08 U/μL EcoRI or KpnI together with 500 nM “trapping” DNA Sc14 (RP559/RP702) were added and incubated for further 0–40 min at 30 °C as indicated. 10 nM PolθΔcen and FL-Polθ and 25 nM Sc15-EcoRI and Sc19-Kpn were probed with 0.04 U/μL EcoRI or KpnI (both from New England Biolabs) using the same conditions. Reactions were stopped by addition of formamide loading buffer with 50 mM EDTA, resolved in denaturing 20% urea PAAG and analyzed using Typhoon PhosphorImager (GE Amersham). Quantification was done in ImageQuant TL software. All quantified experiments were performed in triplicates and plotted as mean with ± s.d using GraphPad Prism 9 software.

Polθ-pol:DNA/DNA complex = molecular target: T3, Polθ-pol:DNA/DNA complex (Homo sapiens, UniProt O75417); experiment: EcoRI endonuclease protection assay; conditions: for EcoRI cleavage %, ave / EcoRI cleavage %, replicates #1-#3: Eco+pol+ddC+RTx compound; for i (%) (14 nt), replicates #1-#3 / i (%), normalized to 100%, ave(%) / i+1 (%) (15 nt), replicates #1-#3 / i+1 (%) normalized to 100%, ave(%): pol+ddC+compound; for cleavage normalized to 100%, i: 14 nt i; for cleavage normalized to 100%, i+1: 15 nt i+1;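 as to i+1 (%) (15 nt), replicates #1-#3: i+1 is one-nucleotide extended DNA within post-catalytic complexes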
T3 construct: purified recombinant human Polθ-pol (comprising amino acid residues 1792–2590); made in house
T3 sequence (O75417 1792-2590): T1 sequence (O75417 1792-2590)
Protocol: as §1

EcoRI = molecular target: T4, EcoRI (Escherichia coli, UniProt P00642); experiment: EcoRI cleavage control in the absence of Polθ-pol; conditions: for cleavage %: EcoRI; for inhibition of EcoRI activity: absence of Polθ-pol; for % cleavage: compound 10 µM
T4 construct: purchased New England Biolabs
T4 sequence (P00642 2-277 limits assumed): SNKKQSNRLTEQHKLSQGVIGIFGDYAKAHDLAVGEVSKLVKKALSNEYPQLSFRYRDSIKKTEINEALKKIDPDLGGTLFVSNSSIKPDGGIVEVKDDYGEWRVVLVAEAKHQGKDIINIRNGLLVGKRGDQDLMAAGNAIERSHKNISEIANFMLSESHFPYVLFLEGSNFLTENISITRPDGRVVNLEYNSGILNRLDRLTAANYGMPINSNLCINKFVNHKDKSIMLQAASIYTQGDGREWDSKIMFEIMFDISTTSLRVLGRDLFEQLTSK
Protocol: as §1

CN(C(=O)Oc1ccc(C(F)(F)F)cc1C(F)(F)F)c1ccc(F)cc1 [MC160385]
inhibition of Polθ-pol MMEJ activity in vitro (Polθ-pol): substantial Polθ-pol MMEJ inhibition

CN(C(=O)Oc1c(N2CCN(CCO)C2=O)cc(C(F)(F)F)cc1C(F)(F)F)c1ccc(F)cc1 [RTx-161]
cleavage % (KpnI; 3 min): 20.2%
cleavage % (KpnI; 6 min): 33.3%
inhibition of KpnI activity (KpnI): resistant to inhibition
% cleavage (KpnI; cleavage 3 min): 20%
% cleavage (KpnI; cleavage 6 min): 33%
time Polθ-pol is trapped on DNA/DNA (EcoRI cleavage suppressed) (Polθ-pol:DNA/DNA complex; 10 μM inhibitor, ddCTP): > 10 min
EcoRI cleavage %, ave (Polθ-pol:DNA/DNA complex; 2.5min): 4.0%
EcoRI cleavage %, replicates #1-#3 (Polθ-pol:DNA/DNA complex; 2.5min): 5.8% and 3.2% and 4.2%
EcoRI cleavage %, ave (Polθ-pol:DNA/DNA complex; 5min): 6.0%
EcoRI cleavage %, replicates #1-#3 (Polθ-pol:DNA/DNA complex; 5min): 8.0% and 4.6% and 4.9%
EcoRI cleavage %, replicates #1-#3 (Polθ-pol:DNA/DNA complex; 10min): 9.0% and 6.1% and 7.3%
i (%) (14 nt), replicates #1-#3 (Polθ-pol:DNA/DNA complex; 2.5min): 25.2% and 24.9% and 24.6%
i (%), normalized to 100%, ave(%) (Polθ-pol:DNA/DNA complex; 2.5min): 100.0%
i+1 (%) (15 nt), replicates #1-#3 (Polθ-pol:DNA/DNA complex; 2.5min): 53.9% and 59.3% and 59.1%
i+1 (%) normalized to 100%, ave(%) (Polθ-pol:DNA/DNA complex; 2.5min): 100.0%
i (%) (14 nt), replicates #1-#3 (Polθ-pol:DNA/DNA complex; 5min): 21.5% and 21.2% and 20.7%
i (%), normalized to 100%, ave(%) (Polθ-pol:DNA/DNA complex; 5min): 85.0%
i+1 (%) (15 nt), replicates #1-#3 (Polθ-pol:DNA/DNA complex; 5min): 55.1% and 61.3% and 62.4%
i+1 (%) normalized to 100%, ave(%) (Polθ-pol:DNA/DNA complex; 5min): 103.8%
i (%) (14 nt), replicates #1-#3 (Polθ-pol:DNA/DNA complex; 10min): 11.4% and 15.0% and 15.5%
i (%), normalized to 100%, ave(%) (Polθ-pol:DNA/DNA complex; 10min): 56.1%
i+1 (%) (15 nt), replicates #1-#3 (Polθ-pol:DNA/DNA complex; 10min): 66.5% and 64.8% and 64.7%
i+1 (%) normalized to 100%, ave(%) (Polθ-pol:DNA/DNA complex; 10min): 113.8%
inhibition of Polθ-pol MMEJ activity in vitro (Polθ-pol): concentration dependent inhibition
cleavage % (EcoRI; 3 min): 26.2%
cleavage % (EcoRI; 6 min): 44.3%
inhibition of EcoRI activity (EcoRI): resistant to inhibition; also recorded: do not inhibit
% cleavage (EcoRI; cleavage 3 min): 26%
% cleavage (EcoRI; cleavage 6 min): 44%

CN1CCN(c2cc(C(F)(F)F)cc(C(F)(F)F)c2OC(=O)N(C)c2ccc(F)cc2)C1=O [RTx-152]
cleavage % (KpnI; 3 min): 21.3%
cleavage % (KpnI; 6 min): 35.8%
inhibition of KpnI activity (KpnI): resistant to inhibition
% cleavage (KpnI; cleavage 3 min): 21%
% cleavage (KpnI; cleavage 6 min): 36%
suppression of EcoRI cleavage (Polθ-pol:DNA/DNA complex; 10 μM inhibitor, ddCTP): strong suppression of endonuclease cleavage
time Polθ-pol is trapped on DNA/DNA (EcoRI cleavage suppressed) (Polθ-pol:DNA/DNA complex; 10 μM inhibitor, ddCTP): > 40 min
EcoRI cleavage %, ave (Polθ-pol:DNA/DNA complex; 2.5min): 2.1%
EcoRI cleavage %, replicates #1-#3 (Polθ-pol:DNA/DNA complex; 2.5min): 3.0% and 2.0% and 1.2%
EcoRI cleavage %, ave (Polθ-pol:DNA/DNA complex; 5min): 2.5%
EcoRI cleavage %, replicates #1-#3 (Polθ-pol:DNA/DNA complex; 5min): 3.0% (2×) and 1.4%
EcoRI cleavage %, ave (Polθ-pol:DNA/DNA complex; 10min): 4.6%
EcoRI cleavage %, replicates #1-#3 (Polθ-pol:DNA/DNA complex; 10min): 5.0% (2×) and 3.7%
EcoRI cleavage % (Polθ-pol:DNA/DNA complex; pol+ddC+152, 0 min): 0.0%
EcoRI cleavage % (Polθ-pol:DNA/DNA complex; pol+ddC+152, 5 min): 3.0%
cleavage normalized to 100%, i (Polθ-pol:DNA/DNA complex; pol+ddC+152, 5 min): 100.0%
cleavage normalized to 100%, i+1 (Polθ-pol:DNA/DNA complex; pol+ddC+152, 5 min): 100.0%
EcoRI cleavage % (Polθ-pol:DNA/DNA complex; pol+ddC+152, 10 min): 3.7%
cleavage normalized to 100%, i (Polθ-pol:DNA/DNA complex; pol+ddC+152, 10 min): 75.0%
cleavage normalized to 100%, i+1 (Polθ-pol:DNA/DNA complex; pol+ddC+152, 10 min): 110.0%
EcoRI cleavage % (Polθ-pol:DNA/DNA complex; pol+ddC+152, 20 min): 5.7%
cleavage normalized to 100%, i (Polθ-pol:DNA/DNA complex; pol+ddC+152, 20 min): 48.0%
cleavage normalized to 100%, i+1 (Polθ-pol:DNA/DNA complex; pol+ddC+152, 20 min): 119.0%
EcoRI cleavage % (Polθ-pol:DNA/DNA complex; pol+ddC+152, 40 min): 9.5%
cleavage normalized to 100%, i (Polθ-pol:DNA/DNA complex; pol+ddC+152, 40 min): 25.0%
cleavage normalized to 100%, i+1 (Polθ-pol:DNA/DNA complex; pol+ddC+152, 40 min): 124.0%
i (%) (14 nt), replicates #1-#3 (Polθ-pol:DNA/DNA complex; 2.5min): 25.8% and 27.6% and 28.2%
i (%), normalized to 100%, ave(%) (Polθ-pol:DNA/DNA complex; 2.5min): 100.0%
i+1 (%) (15 nt), replicates #1-#3 (Polθ-pol:DNA/DNA complex; 2.5min): 59.7% and 57.2% and 58.7%
i+1 (%) normalized to 100%, ave(%) (Polθ-pol:DNA/DNA complex; 2.5min): 100.0%
i (%) (14 nt), replicates #1-#3 (Polθ-pol:DNA/DNA complex; 5min): 22.2% and 22.6% and 25.1%
i (%), normalized to 100%, ave(%) (Polθ-pol:DNA/DNA complex; 5min): 85.6%
i+1 (%) (15 nt), replicates #1-#3 (Polθ-pol:DNA/DNA complex; 5min): 63.6% and 59.1% and 62.1%
i+1 (%) normalized to 100%, ave(%) (Polθ-pol:DNA/DNA complex; 5min): 105.2%
i (%) (14 nt), replicates #1-#3 (Polθ-pol:DNA/DNA complex; 10min): 15.4% and 16.3% and 17.9%
i (%), normalized to 100%, ave(%) (Polθ-pol:DNA/DNA complex; 10min): 60.8%
i+1 (%) (15 nt), replicates #1-#3 (Polθ-pol:DNA/DNA complex; 10min): 68.8% and 63.1% and 66.7%
i+1 (%) normalized to 100%, ave(%) (Polθ-pol:DNA/DNA complex; 10min): 113.1%
cleavage % (EcoRI; 3 min): 27.4%
cleavage % (EcoRI; 6 min): 49.4%
inhibition of EcoRI activity (EcoRI): resistant to inhibition; also recorded: do not inhibit
% cleavage (EcoRI; cleavage 3 min): 27%
% cleavage (EcoRI; cleavage 6 min): 49%
